Data on 23 compounds can be found in patent publication US7932270B2 (Cytokinetics, Inc., priority 2006, dated 2011).

T1 sequence (P02607 2-151): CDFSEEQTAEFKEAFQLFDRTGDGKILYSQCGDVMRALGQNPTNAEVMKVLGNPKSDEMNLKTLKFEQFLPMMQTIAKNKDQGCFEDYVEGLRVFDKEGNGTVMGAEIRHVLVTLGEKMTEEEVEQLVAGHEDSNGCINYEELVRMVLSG
T1 sequence (P10587 84-789): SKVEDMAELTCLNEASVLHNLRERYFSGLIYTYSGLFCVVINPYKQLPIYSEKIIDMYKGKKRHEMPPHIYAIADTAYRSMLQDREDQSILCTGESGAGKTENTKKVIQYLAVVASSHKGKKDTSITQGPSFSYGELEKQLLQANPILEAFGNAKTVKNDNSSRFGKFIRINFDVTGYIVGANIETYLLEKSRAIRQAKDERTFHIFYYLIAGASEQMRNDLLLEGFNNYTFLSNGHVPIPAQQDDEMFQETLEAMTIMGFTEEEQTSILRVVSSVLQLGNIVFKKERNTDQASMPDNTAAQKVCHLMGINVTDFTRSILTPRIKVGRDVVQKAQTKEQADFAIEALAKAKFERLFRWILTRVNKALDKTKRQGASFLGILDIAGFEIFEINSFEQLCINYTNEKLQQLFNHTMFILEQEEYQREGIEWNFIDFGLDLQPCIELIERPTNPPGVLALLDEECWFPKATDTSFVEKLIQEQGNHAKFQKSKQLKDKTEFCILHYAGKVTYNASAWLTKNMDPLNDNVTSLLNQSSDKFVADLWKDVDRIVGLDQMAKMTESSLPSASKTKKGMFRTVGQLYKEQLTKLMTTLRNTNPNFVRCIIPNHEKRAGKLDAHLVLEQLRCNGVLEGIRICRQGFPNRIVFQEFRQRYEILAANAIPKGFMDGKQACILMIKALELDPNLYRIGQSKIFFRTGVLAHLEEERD

The assay has as its target T1, chicken gizzard smooth muscle myosin subfragment-1 chemically crosslinked to cardiac or skeletal actin (Gallus gallus, UniProt P10587).
T1 construct: chicken gizzard smooth muscle myosin subfragment-1; from tissue; host or cells: chicken gizzard
As to the kind of experiment: Smooth muscle myosin ATPase dose response assay (pyruvate kinase/horseradish peroxidase/pyruvate oxidase-coupled, amplex red fluorescence). Type of assay: biochemical. To be noted: read-out: IC50 Arithmetic Mean. The essentials:
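ATPase monitored by amplex red fluorescence (ex 480/em 615 nm) via pyruvate oxidase/HRP coupling, pH 7.00, ATP 0.15 mM. Enzyme: smooth muscle S1-actin crosslinked conjugate, amount set empirically by titration. Dose-response fitted with 4-parameter Hill equation for IC50.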
For orientation: IC50 means the midpoint of a concentration-inhibition curve. In the case of `COC(=O)N1CCCC[C@@H]1CNC(=O)c1ccc(-c2ccccc2C#N)nc1NCCc1cccc(F)c1` [methyl (2R)-2-{[(6-(2-cyanophenyl)-2-{[2-(3-fluorophenyl)ethyl]amino}(3-pyridyl))carbonylamino]methyl}piperidinecarboxylate], the IC50 amounted to 4280 nM. For `COC(=O)N1CCC[C@@H]1CNC(=O)c1ccc(-c2ccccc2C#N)nc1NCCc1cccc(F)c1` [methyl (2R)-2-{[(6-(2-cyanophenyl)-2-{[2-(3-fluorophenyl)ethyl]amino}(3-pyridyl))carbonylamino]methyl}pyrrolidinecarboxylate] the value was 101 nM; for `COC(=O)[C@H](C)CNC(=O)c1cc(F)c(-c2cnn(C)c2)nc1NCCc1cccc(F)c1` [methyl (2R)-3-[(5-fluoro-2-{[2-(3-fluorophenyl)ethyl]amino}-6-(1-methylpyrazol-4-yl)(3-pyridyl))carbonylamino]-2-methylpropanoate], 100 nM. For `COC(=O)[C@H](C)CNC(=O)c1cc(F)c(-c2cn[nH]c2)nc1NCCc1cccc(F)c1` [methyl (2R)-3-[(5-fluoro-2-{[2-(3-fluorophenyl)ethyl]amino}-6-pyrazol-4-yl(3-pyridyl))carbonylamino]-2-methylpropanoate] the value was 73 nM; for `COC(=O)[C@H](C)CNC(=O)c1ccc(-c2ccccc2C#N)nc1NCCc1cccc(F)c1` [methyl (2R)-3-[(6-(2-cyanophenyl)-2-{[2-(3-fluorophenyl)ethyl]amino}(3-pyridyl))carbonylamino]-2-methylpropanoate], 186 nM; for `COC(=O)[C@@H](CN)NC(=O)c1ccc(-c2ccccc2C#N)nc1NCCc1cccc(F)c1` [methyl (2R)-3-amino-2-[(6-(2-cyanophenyl)-2-{[2-(3-fluorophenyl)ethyl]amino}(3-pyridyl))carbonylamino]propanoate], 2380 nM.

As for `COC(=O)[C@H](C)CNC(=O)c1cc(F)c(-c2cnn(C)c2)nc1N` [methyl (2R)-3-{[2-amino-5-fluoro-6-(1-methylpyrazol-4-yl)(3-pyridyl)]carbonylamino}-2-methylpropanoate], the IC50 was determined as 86000 nM. Take `COC(=O)[C@H](CNC(=O)c1ccc(-c2ccccc2C#N)nc1NCCc1cccc(F)c1)NC(C)=O` [methyl (2S)-2-(acetylamino)-3-[(6-(2-cyanophenyl)-2-{[2-(3-fluorophenyl)ethyl]amino}(3-pyridyl))carbonylamino]propanoate]: the IC50 came to 1640 nM.

On to `COC(=O)[C@H](CO)NC(=O)c1ccc(-c2ccccc2C#N)nc1NCCc1cccc(F)c1` [methyl (2S)-2-[(6-(2-cyanophenyl)-2-{[2-(3-fluorophenyl)ethyl]amino}(3-pyridyl))carbonylamino]-3-hydroxypropanoate], for which the IC50 stood at 4180 nM. In the case of `COC(=O)[C@H](C)NC(=O)c1ccc(-c2ccccc2C#N)nc1NCCc1cccc(F)c1` [methyl (2S)-2-[(6-(2-cyanophenyl)-2-{[2-(3-fluorophenyl)ethyl]amino}(3-pyridyl))carbonylamino]propanoate], the IC50 worked out at 6980 nM.

As for `COC(=O)[C@@H](N)CNC(=O)c1ccc(-c2ccccc2C#N)nc1NCCc1cccc(F)c1` [methyl (2S)-2-amino-3-[(6-(2-cyanophenyl)-2-{[2-(3-fluorophenyl)ethyl]amino}(3-pyridyl))carbonylamino]propanoate], the IC50 was 619 nM. As for `COC(=O)N1CCN(C)C[C@@H]1CNC(=O)c1ccc(-c2ccccc2C#N)nc1NCCc1cccc(F)c1` [methyl (2S)-2-{[(6-(2-cyanophenyl)-2-{[2-(3-fluorophenyl)ethyl]amino}(3-pyridyl))carbonylamino]methyl}-4-methylpiperazinecarboxylate], the figure is 10100 nM; as for `COC(=O)[C@@H](C)CNC(=O)c1cc(F)c(-c2cnn(C)c2)nc1NCCc1cccc(F)c1` [methyl (2S)-3-[(5-fluoro-2-{[2-(3-fluorophenyl)ethyl]amino}-6-(1-methylpyrazol-4-yl)(3-pyridyl))carbonylamino]-2-methylpropanoate], 141 nM. As for `COC(=O)[C@H](CN)NC(=O)c1ccc(-c2ccccc2C#N)nc1NCCc1cccc(F)c1` [methyl (2S)-3-amino-2-[(6-(2-cyanophenyl)-2-{[2-(3-fluorophenyl)ethyl]amino}(3-pyridyl))carbonylamino]propanoate], the figure is 2320 nM. As for `COC(=O)N1CCC[C@H](CNC(=O)c2ccc(-c3ccccc3C#N)nc2NCCc2cccc(F)c2)C1` [methyl (3R)-3-{[(6-(2-cyanophenyl)-2-{[2-(3-fluorophenyl)ethyl]amino}(3-pyridyl))carbonylamino]methyl}piperidinecarboxylate], the figure is 718 nM; as for `CC(C)(C)OC(=O)N1CCOC(CNC(=O)c2ccc(-c3ccccc3)nc2NCCc2ccccn2)C1` (centres unmarked) [tert-butyl 2-[({6-phenyl-2-[(2-(2-pyridyl)ethyl)amino]-3-pyridyl}carbonylamino)methyl]morpholine-4-carboxylate], 65100 nM. As to `Cc1cc(C(=O)NC[C@H]2CCCN2C(=O)OC(C)(C)C)c(NCCc2cccc(F)c2)nc1-c1cnn(C)c1` [tert-butyl (2R)-2-{[(2-{[2-(3-fluorophenyl)ethyl]amino}-5-methyl-6-(1-methylpyrazol-4-yl)(3-pyridyl))carbonylamino]methyl}pyrrolidinecarboxylate], the IC50 turned out to be 3700 nM. As for `Cn1cc(-c2ccc(C(=O)NC[C@H]3CCCN3C(=O)OC(C)(C)C)c(NCCc3cccc(F)c3)n2)cn1` [tert-butyl (2R)-2-{[(2-{[2-(3-fluorophenyl)ethyl]amino}-6-(1-methylpyrazol-4-yl)(3-pyridyl))carbonylamino]methyl}pyrrolidinecarboxylate], the figure is 4640 nM; as for `CC(C)(C)OC(=O)N1CC[C@@H]1CNC(=O)c1ccc(-c2cn[nH]c2)nc1NCCc1cccc(F)c1` [tert-butyl (2R)-2-{[(2-{[2-(3-fluorophenyl)ethyl]amino}-6-pyrazol-4-yl(3-pyridyl))carbonylamino]methyl}azetidinecarboxylate], 525 nM; as for `CC(C)(C)OC(=O)N1CCC[C@@H]1CNC(=O)c1ccc(-c2cn[nH]c2)nc1NCCc1cccc(F)c1` [tert-butyl (2R)-2-{[(2-{[2-(3-fluorophenyl)ethyl]amino}-6-pyrazol-4-yl(3-pyridyl))carbonylamino]methyl}pyrrolidinecarboxylate], 3170 nM. With `Cn1cc(-c2nc(NCCc3cccc(F)c3)c(C(=O)NC[C@H]3CCCN3C(=O)OC(C)(C)C)cc2Cl)cn1` [tert-butyl (2R)-2-{[(5-chloro-2-{[2-(3-fluorophenyl)ethyl]amino}-6-(1-methylpyrazol-4-yl)(3-pyridyl))carbonylamino]methyl}pyrrolidinecarboxylate], the IC50 was determined as 1600 nM. For `Cn1cc(-c2nc(NCCc3cccc(F)c3)c(C(=O)NC[C@H]3CCCN3C(=O)OC(C)(C)C)cc2C#N)cn1` [tert-butyl (2R)-2-{[(5-cyano-2-{[2-(3-fluorophenyl)ethyl]amino}-6-(1-methylpyrazol-4-yl)(3-pyridyl))carbonylamino]methyl}pyrrolidinecarboxylate] the value was 2520 nM; for `CC(C)(C)OC(=O)N1CCC[C@@H]1CNC(=O)c1cc(C#N)c(-c2cn[nH]c2)nc1NCCc1cccc(F)c1` [tert-butyl (2R)-2-{[(5-cyano-2-{[2-(3-fluorophenyl)ethyl]amino}-6-pyrazol-4-yl(3-pyridyl))carbonylamino]methyl}pyrrolidinecarboxylate], 6410 nM.
